# Tested on: 475296-252-R-J1-PDC spheroid viability
# Assay: Anticancer human tumor 475296-252-R-J1-PDC patient-derived rectal carcinoma cell line growth inhibition [PI3K]
# Details: spheroids with HUVEC and MSC; for IC50: curve of first compound; for viability, T/C: stronger effect = lower value
# Outline: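 Multi-cell spheroids combine tumor cells with HUVEC and human MSCs, treated with targeted agents alone or with inavolisib, alpelisib, duvelisib or copanlisib. Concentrations fall in half-log steps from at or near clinical Cmax, or from 10 microM where Cmax is unknown; viability read-out.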
# [1] = second compound 0.0316 µM, first compound 0.0316 µM
# [2] = second compound 0.0316 µM, first compound 0.1 µM
# [3] = second compound 0.0316 µM, first compound 0.316 µM
# [4] = second compound 0.0316 µM, first compound 1 µM
# [5] = second compound 0.0316 µM, first compound 3.16 µM
# [6] = second compound 0.0316 µM, first compound 10 µM
# [7] = second compound 0.1 µM, first compound 0.0316 µM
# [8] = second compound 0.1 µM, first compound 0.1 µM
# [9] = second compound 0.1 µM, first compound 0.316 µM
# [10] = second compound 0.1 µM, first compound 1 µM
# [11] = second compound 0.1 µM, first compound 3.16 µM
# [12] = second compound 0.1 µM, first compound 10 µM
# [13] = second compound 0.316 µM, first compound 0.0316 µM
# [14] = second compound 0.316 µM, first compound 0.1 µM
# [15] = second compound 0.316 µM, first compound 0.316 µM
# [16] = second compound 0.316 µM, first compound 1 µM
# [17] = second compound 0.316 µM, first compound 3.16 µM
# [18] = second compound 0.316 µM, first compound 10 µM
# [19] = second compound 1 µM, first compound 0.0316 µM
# [20] = second compound 1 µM, first compound 0.1 µM
# [21] = second compound 1 µM, first compound 0.316 µM
# [22] = second compound 1 µM, first compound 1 µM
# [23] = second compound 1 µM, first compound 3.16 µM
# [24] = second compound 1 µM, first compound 10 µM
# [25] = second compound 3.16 µM, first compound 0.0316 µM
# [26] = second compound 3.16 µM, first compound 0.1 µM
# [27] = second compound 3.16 µM, first compound 0.316 µM
# [28] = second compound 3.16 µM, first compound 1 µM
# [29] = second compound 3.16 µM, first compound 3.16 µM
# [30] = second compound 3.16 µM, first compound 10 µM
# [31] = second compound 10 µM, first compound 0.0316 µM
# [32] = second compound 10 µM, first compound 0.1 µM
# [33] = second compound 10 µM, first compound 0.316 µM
# [34] = second compound 10 µM, first compound 1 µM
# [35] = second compound 10 µM, first compound 3.16 µM
# [36] = second compound 10 µM, first compound 10 µM
# 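Also: spheroids exposed to agents for seven days before readout.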
structure (smiles),measurement,setting,value
CC(C)NCC(C(=O)N1CCN(c2ncnc3c2C(C)CC3O)CC1)c1ccc(Cl)cc1 (stereo not drawn) + Cc1nc(NC(=O)N2CCCC2C(N)=O)sc1-c1ccnc(C(C)(C)C(F)(F)F)c1,IC50,second compound 0.0316 µM,> 10 µM
same,IC50,second compound 0.1 µM,> 10 µM
same,IC50,second compound 0.316 µM,> 10 µM
same,IC50,second compound 1 µM,> 10 µM
same,IC50,second compound 3.16 µM,> 10 µM
same,IC50,second compound 10 µM,> 10 µM
same,"viability, T/C",[1],98%
same,"viability, T/C",[2],90.3%
same,"viability, T/C",[3],92%
same,"viability, T/C",[4],89.3%
same,"viability, T/C",[5],78.9%
same,"viability, T/C",[6],70.3%
same,"viability, T/C",[7],89.4%
same,"viability, T/C",[8],93.3%
same,"viability, T/C",[9],92.7%
same,"viability, T/C",[10],80.3%
same,"viability, T/C",[11],62.4%
same,"viability, T/C",[12],58.2%
same,"viability, T/C",[13],93.2%
same,"viability, T/C",[14],95.1%
same,"viability, T/C",[15],88.3%
same,"viability, T/C",[16],92.5%
same,"viability, T/C",[17],68.3%
same,"viability, T/C",[18],58.9%
same,"viability, T/C",[19],85%
same,"viability, T/C",[20],92.7%
same,"viability, T/C",[21],88.2%
same,"viability, T/C",[22],90%
same,"viability, T/C",[23],81.3%
same,"viability, T/C",[24],58.7%
same,"viability, T/C",[25],82.5%
same,"viability, T/C",[26],96.6%
same,"viability, T/C",[27],88.8%
same,"viability, T/C",[28],89.4%
same,"viability, T/C",[29],77.7%
same,"viability, T/C",[30],65.8%
same,"viability, T/C",[31],96%
same,"viability, T/C",[32],81.3%
same,"viability, T/C",[33],89.3%
same,"viability, T/C",[34],85%
same,"viability, T/C",[35],77.2%
same,"viability, T/C",[36],64.3%
CC1(C)CCC(CN2CCN(c3ccc(C(=O)NS(=O)(=O)c4ccc(NCC5CCOCC5)c([N+](=O)[O-])c4)c(Oc4cnc5[nH]ccc5c4)c3)CC2)=C(c2ccc(Cl)cc2)C1 + Cc1nc(NC(=O)N2CCCC2C(N)=O)sc1-c1ccnc(C(C)(C)C(F)(F)F)c1,IC50,second compound 0.0316 µM,> 10 µM
same,IC50,second compound 0.1 µM,> 10 µM
same,IC50,second compound 0.316 µM,> 10 µM
same,IC50,second compound 1 µM,> 10 µM
same,IC50,second compound 3.16 µM,> 10 µM
same,IC50,second compound 10 µM,> 10 µM
same,"viability, T/C",[1],107%
same,"viability, T/C",[2],90.1%
same,"viability, T/C",[3],95.3%
same,"viability, T/C",[4],87.2%
same,"viability, T/C",[5],95.7%
same,"viability, T/C",[6],62.5%
same,"viability, T/C",[7],99.3%
same,"viability, T/C",[8],85.6%
same,"viability, T/C",[9],98.9%
same,"viability, T/C",[10],93%
same,"viability, T/C",[11],94.2%
same,"viability, T/C",[12],63.5%
same,"viability, T/C",[13],99.7%
same,"viability, T/C",[14],97.5%
same,"viability, T/C",[15],89.9%
same,"viability, T/C",[16],84.5%
same,"viability, T/C",[17],84.2%
same,"viability, T/C",[18],69%
same,"viability, T/C",[19],90.8%
same,"viability, T/C",[20],93.2%
same,"viability, T/C",[21],97.1%
same,"viability, T/C",[22],93.3%
same,"viability, T/C",[23],88.3%
same,"viability, T/C",[24],73.3%
same,"viability, T/C",[25],83.4%
same,"viability, T/C",[26],82%
same,"viability, T/C",[27],95.5%
same,"viability, T/C",[28],90.5%
same,"viability, T/C",[29],87.5%
same,"viability, T/C",[30],63.3%
same,"viability, T/C",[31],86.5%
same,"viability, T/C",[32],87.6%
same,"viability, T/C",[33],89.4%
same,"viability, T/C",[34],89%
same,"viability, T/C",[35],87.3%
same,"viability, T/C",[36],56.7%
C[C@@H](NC(=O)c1ncnc(N)c1Cl)c1ncc(C(=O)Nc2cc(C(F)(F)F)c(Cl)cn2)s1 + Cc1nc(NC(=O)N2CCCC2C(N)=O)sc1-c1ccnc(C(C)(C)C(F)(F)F)c1,IC50,second compound 0.0316 µM,> 10 µM
same,IC50,second compound 0.1 µM,> 10 µM
same,IC50,second compound 0.316 µM,> 10 µM
same,IC50,second compound 1 µM,> 10 µM
same,IC50,second compound 3.16 µM,> 10 µM
same,IC50,second compound 10 µM,7.71 µM
same,"viability, T/C",[1],97.3%
same,"viability, T/C",[2],82.2%
same,"viability, T/C",[3],98.4%
same,"viability, T/C",[4],97.1%
same,"viability, T/C",[5],104%
same,"viability, T/C",[6],84.1%
same,"viability, T/C",[7],88.8%
same,"viability, T/C",[8],85.3%
same,"viability, T/C",[9],109%
same,"viability, T/C",[10],91.7%
same,"viability, T/C",[11],100%
same,"viability, T/C",[12],95.4%
same,"viability, T/C",[13],87.7%
same,"viability, T/C",[14],90.5%
same,"viability, T/C",[15],97%
same,"viability, T/C",[16],98.9%
same,"viability, T/C",[17],95.6%
same,"viability, T/C",[18],79.9%
same,"viability, T/C",[19],82.6%
same,"viability, T/C",[20],93.7%
same,"viability, T/C",[21],101%
same,"viability, T/C",[22],101%
same,"viability, T/C",[23],84.9%
same,"viability, T/C",[24],63%
same,"viability, T/C",[25],86.2%
same,"viability, T/C",[26],79.4%
same,"viability, T/C",[27],93.4%
same,"viability, T/C",[28],75.9%
same,"viability, T/C",[29],79.6%
same,"viability, T/C",[30],70.5%
same,"viability, T/C",[31],86.6%
same,"viability, T/C",[32],77%
same,"viability, T/C",[33],79.5%
same,"viability, T/C",[34],69.1%
same,"viability, T/C",[35],66.8%
same,"viability, T/C",[36],45%
Cn1ncnc1[C@H]1c2n[nH]c(=O)c3cc(F)cc(c23)N[C@@H]1c1ccc(F)cc1 + Cc1nc(NC(=O)N2CCCC2C(N)=O)sc1-c1ccnc(C(C)(C)C(F)(F)F)c1,IC50,second compound 0.0316 µM,> 0.1 µM
same,IC50,second compound 0.1 µM,> 0.1 µM
same,IC50,second compound 0.316 µM,> 0.1 µM
same,IC50,second compound 1 µM,> 0.1 µM
same,IC50,second compound 3.16 µM,> 0.1 µM
same,IC50,second compound 10 µM,> 0.1 µM
same,"viability, T/C","second compound 0.0316 µM, first compound 0.000316 µM",104%
same,"viability, T/C","second compound 0.0316 µM, first compound 0.001 µM",88.4%
same,"viability, T/C","second compound 0.0316 µM, first compound 0.00316 µM",106%
same,"viability, T/C","second compound 0.0316 µM, first compound 0.01 µM",87.1%
same,"viability, T/C",[1],98.8%
same,"viability, T/C",[2],101%
same,"viability, T/C","second compound 0.1 µM, first compound 0.000316 µM",92%
same,"viability, T/C","second compound 0.1 µM, first compound 0.001 µM",87.1%
same,"viability, T/C","second compound 0.1 µM, first compound 0.00316 µM",94.7%
same,"viability, T/C","second compound 0.1 µM, first compound 0.01 µM",101%
same,"viability, T/C",[7],110%
same,"viability, T/C",[8],103%
same,"viability, T/C","second compound 0.316 µM, first compound 0.000316 µM",89.7%
same,"viability, T/C","second compound 0.316 µM, first compound 0.001 µM",92.4%
same,"viability, T/C","second compound 0.316 µM, first compound 0.00316 µM",88.9%
same,"viability, T/C","second compound 0.316 µM, first compound 0.01 µM",99.6%
same,"viability, T/C",[13],105%
same,"viability, T/C",[14],90.8%
same,"viability, T/C","second compound 1 µM, first compound 0.000316 µM",91.3%
same,"viability, T/C","second compound 1 µM, first compound 0.001 µM",99.5%
same,"viability, T/C","second compound 1 µM, first compound 0.00316 µM",101%
same,"viability, T/C","second compound 1 µM, first compound 0.01 µM",91.7%
same,"viability, T/C",[19],92.6%
same,"viability, T/C",[20],104%
same,"viability, T/C","second compound 3.16 µM, first compound 0.000316 µM",85.8%
same,"viability, T/C","second compound 3.16 µM, first compound 0.001 µM",90%
same,"viability, T/C","second compound 3.16 µM, first compound 0.00316 µM",91.5%
same,"viability, T/C","second compound 3.16 µM, first compound 0.01 µM",87.7%
same,"viability, T/C",[25],87.7%
same,"viability, T/C",[26],88.6%
same,"viability, T/C","second compound 10 µM, first compound 0.000316 µM",91.7%
same,"viability, T/C","second compound 10 µM, first compound 0.001 µM",92.1%
same,"viability, T/C","second compound 10 µM, first compound 0.00316 µM",84.7%
same,"viability, T/C","second compound 10 µM, first compound 0.01 µM",83.3%
same,"viability, T/C",[31],91.3%
same,"viability, T/C",[32],84.6%

# From PubChem BioAssay AID1963980 (Molecular Pharmacology Branch, DTP, NCI, 2024)
